From US10441566B2, “Use of butylidenephthalide” (EVERFRONT BIOTECH INC., priority 2016, dated 2019) come the findings set out here.

Type in all cases: cell-based
Series [1] relates to Col1a1 gene. In words: Q-PCR expression of myofibroblast marker gene Col1a1 in fBMFs. The note with it: fBMF-1 and fBMF-2, BP 0, 25, or 50 μg/mL, 48 hours, with the increment in concentration, FIG. 4. The text has this: (§1) Two groups of buccal mucosal fibroblasts obtained from normal oral buccal mucosa (hereinafter abbreviated as “BMF-1” and “BMF-2”; or collectively called “BMFs”), and two groups of fibrotic buccal mucosal fibroblasts obtained from fibrotic oral buccal mucosa (hereinafter abbreviated as “fBMF-1” and “fBMF-2”; or collectively called “fBMFs”) were respectively subjected to the following procedures: seeding the cells into a 24-well plate by a concentration of 2×10^4 cells/well to cultivate the cells to reach a 80% confluence, and then respectively treating the cells with different concentrations (0, 12.5, 25, 50, 100, or 200 μg/mL) of butylidenephthalide (BP) for 48 hours. […]
(§2) It is known that during the process of the fibrosis of tissue, the tissue cells would differentiate and become myofibroblasts, wherein the α-SMA gene, Col1a1 gene, and S100A4 gene are the maker genes of myofibroblasts. Thus, in this experiment, a quantitative real-time polymerase chain reaction (Q-PCR) was conducted to investigate whether butylidenephthalide (BP) can inhibit the expressions of α-SMA gene, Col1a1 gene, and S100A4 gene in oral submucosal tissue cells. […]

Series [2] concerns fibrotic buccal mucosal fibroblasts (fBMFs). Description: Collagen gel contraction assay. The note with it: fBMFs in collagen gel, BP 0, 25, or 50 μg/mL, 48 hours, with the increment in concentration, FIGS. 5A and 5B. As for the experimental part:
The BMF-1, BMF-2, fBMF-1, and fBMF-2 provided by [Preparation example A] were respectively dissolved in 0.5 mL of 2 mg/mL collagen solution (purchased from Sigma-Aldrich), and the mixtures thus obtained were moved into a 24-well plate. Then, the 24-well plate was placed in an incubator at […] and 5% CO2 for 2 hours to coagulate the collagen gels. The gels thus obtained were respectively called “BMFs group”, and “fBMFs group” gels. Thereafter, the coagulated gels were disengaged from the culture plate, and 0.5 mL of a medium containing different concentrations (0, 25, or 50 μg/mL) of butylidenephthalide (BP) was added thereinto to incubate with the gels for 48 hours. The contraction of gel in each group were observed and photographed. Finally, the relative gel area (%) of each “fBMFs group” was calculated by using the image-analyzed software, ImageJ (National Institutes of Health, USA) and using the results of “BMFs group” not being treated with butylidenephthalide (BP) as a basis.

For series [3], the system named is α-SMA gene. Description: Q-PCR expression of myofibroblast marker gene α-SMA in fBMFs. The note with it: fBMF-1 and fBMF-2, BP 0, 25, or 50 μg/mL, 48 hours, with the increment in concentration, FIG. 4.
From the text: as §1, §2

Series [4] relates to ZEB1 gene. Description: Q-PCR expression of EMT marker gene ZEB1 in fBMFs. The note with it: fBMF-1 and fBMF-2, BP 0, 25, or 50 μg/mL, 48 hours, with the increment in concentration, FIG. 2.
From the text: as §1
(§3) It is known that during the process of epithelial-mesenchymal transition (EMT), the expressions of Twist gene, Snail gene, and ZEB1 gene in the cells will increase, and thus, these genes are known as the marker genes of EMT. In this experiment, quantitative real-time polymerase chain reaction (Q-PCR) was conducted to investigate whether butylidenephthalide (BP) can affect the expressions of Twist gene, Snail gene, and ZEB1 gene in oral submucosal tissue cells. […]

Series [5] relates to fibrotic buccal mucosal fibroblasts (fBMFs). In words: Transwell cell migration assay. The note with it: BP 0, 25, or 50 μg/mL, 24 hours migration, FIGS. 3A and 3B. As for the experimental part: In this experiment, a transwell cell migration assay system (Transwell® system; purchased from Corning company, UK) and a polycarbonate membrane with a pore size of 8 μm (purchased from Corning company, UK) were used to further investigate whether butylidenephthalide (BP) can inhibit the abilities of oral submucosal tissue cells to crawl and invade.
First, the cell medium containing 10% FBS (fetal bovine serum) was added into the lower chamber, and an apparatus of polycarbonate membrane was placed on the bottom of a cell culture plate, i.e., upper chamber. On the other hand, the BMF-1, BMF-2, fBMF-1, and fBMF-2 provided by [Preparation example A] (2×10^4 cells/group) were evenly mixed with a 250 μL serum-free medium that is externally added with butylidenephthalide (BP) by a concentration of 0, 25, or 50 μg/mL. Then, the mixtures thus obtained were respectively added into the upper chambers. Thereafter, the whole transwell cell migration assay system was placed in an incubator to induce cell migration for 24 hours. […] Then, the polycarbonate membrane were fixed with 4% paraformaldehyde for 10 minutes and stained with 0.1% crystal violet. […] The cell numbers on the membrane were calculated into the relative cell migration ability (%) by using the results of BMFs not treated with butylidenephthalide (BP) as a basis.

The test system of series [6] is buccal mucosal fibroblasts (BMFs; BMF-1, BMF-2). In words: MTT cytotoxicity evaluation, relative viability of buccal mucosal fibroblasts. The note with it: BP at a concentration of no more than 50 μg/mL, 48 hours, FIG. 1.
From the text: as §1

Series [7] deals with fibrotic buccal mucosal fibroblasts (fBMFs; fBMF-1, fBMF-2). Description: MTT cytotoxicity evaluation, relative viability of fibrotic buccal mucosal fibroblasts. The note with it: BP at a concentration of no more than 50 μg/mL, 48 hours, FIG. 1.
From the text: as §1

The test system of series [8] is Twist gene. Description: Q-PCR expression of EMT marker gene Twist in fBMFs. The note with it: fBMF-1 and fBMF-2, BP 0, 25, or 50 μg/mL, 48 hours, with the increment in concentration, FIG. 2.
From the text: as §1, §3

The subject of series [9] is S100A4 gene. In words: Q-PCR expression of myofibroblast marker gene S100A4 in fBMFs. The note with it: fBMF-1 and fBMF-2, BP 0, 25, or 50 μg/mL, 48 hours, with the increment in concentration, FIG. 4.
From the text: as §1, §2

Series [10] has as its system Snail gene. Description: Q-PCR expression of EMT marker gene Snail in fBMFs. The note with it: fBMF-1 and fBMF-2, BP 0, 25, or 50 μg/mL, 48 hours, with the increment in concentration, FIG. 2.
From the text: as §1, §3

For the compound `CCCC=C1OC(=O)c2ccccc21` [butylidenephthalide], the “expression of Col1a1 gene” value in series [1] is recorded as “significantly decreased”. Besides, the “gel contraction (relative gel area)” value in series [2] is on record as “significantly mitigate”. The “expression of α-SMA gene” value in series [3] is recorded as “significantly decreased”. Moreover, the “expression of ZEB1 gene” value in series [4] was “significantly decreased”. Besides, the “cells which migrated from the upper chamber to the lower chamber (relative migration ability)” value in series [5] was “decrease with the increment in the concentration”. In [6], the “growth (relative viability) of BMFs” value was “will not be affected”. The “growth (relative viability) of fBMFs” value in series [7] is reported as “will not be affected”. Also, the “expression of Twist gene” value in series [8] is “significantly decreased”. In addition, the “expression of S100A4 gene” value in [9] is “significantly decreased”. Also, the “expression of Snail gene” value in [10] is “significantly decreased”.
